Laboratory results as given in PubChem BioAssay AID1963959 (Molecular Pharmacology Branch, DTP, NCI, 2024).

Tested on: T-47D spheroids with HUVEC/MSC, viability
Experiment: Anticancer human tumor T-47D cell line growth inhibition [PI3K];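 also: spheroids exposed to agents for seven days before reading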;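 as to viability, T/C: percent of DMSO vehicle control luminescence so 100% = untreated growth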
Details: for IC50: curve of first compound; for viability, T/C: stronger effect = lower value
Procedure, shortened: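 Spheroid viability read-out. Co-cultures contained the tumor line plus HUVEC and human MSCs. Each agent was paired with a PI3K inhibitor (inavolisib, alpelisib, duvelisib, copanlisib) across half-log dilutions starting at clinical Cmax, or at 10 microM when Cmax was unknown.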

[1] = second compound 0.0316 µM, first compound 0.0316 µM
[2] = second compound 0.0316 µM, first compound 0.1 µM
[3] = second compound 0.1 µM, first compound 0.0316 µM
[4] = second compound 0.1 µM, first compound 0.1 µM
[5] = second compound 0.316 µM, first compound 0.0316 µM
[6] = second compound 0.316 µM, first compound 0.1 µM
[7] = second compound 1 µM, first compound 0.0316 µM
[8] = second compound 1 µM, first compound 0.1 µM
[9] = second compound 3.16 µM, first compound 0.0316 µM
[10] = second compound 3.16 µM, first compound 0.1 µM
[11] = second compound 10 µM, first compound 0.0316 µM
[12] = second compound 10 µM, first compound 0.1 µM

## CNC(=O)c1ccc(N2C(=S)N(c3ccc(C#N)c(C(F)(F)F)c3)C(=O)C2(C)C)cc1F + Cc1nc(NC(=O)N2CCCC2C(N)=O)sc1-c1ccnc(C(C)(C)C(F)(F)F)c1
Second compound 0.0316 µM
  IC50: > 10000 nM
Second compound 0.1 µM
  IC50: > 10000 nM
Second compound 0.316 µM
  IC50: > 10000 nM
Second compound 1 µM
  IC50: > 10000 nM
Second compound 3.16 µM
  IC50: > 10000 nM
Second compound 10 µM
  IC50: < 31.6 nM
[1]
  viability, T/C: 113%
[2]
  viability, T/C: 82%
Second compound 0.0316 µM, first compound 0.316 µM
  viability, T/C: 97%
Second compound 0.0316 µM, first compound 1 µM
  viability, T/C: 87.1%
Second compound 0.0316 µM, first compound 3.16 µM
  viability, T/C: 91.1%
Second compound 0.0316 µM, first compound 10 µM
  viability, T/C: 87.9%
[3]
  viability, T/C: 111%
[4]
  viability, T/C: 96.5%
Second compound 0.1 µM, first compound 0.316 µM
  viability, T/C: 93.2%
Second compound 0.1 µM, first compound 1 µM
  viability, T/C: 88.4%
Second compound 0.1 µM, first compound 3.16 µM
  viability, T/C: 97.7%
Second compound 0.1 µM, first compound 10 µM
  viability, T/C: 84.9%
[5]
  viability, T/C: 91.8%
[6]
  viability, T/C: 85%
Second compound 0.316 µM, first compound 0.316 µM
  viability, T/C: 94.3%
Second compound 0.316 µM, first compound 1 µM
  viability, T/C: 85.9%
Second compound 0.316 µM, first compound 3.16 µM
  viability, T/C: 101%
Second compound 0.316 µM, first compound 10 µM
  viability, T/C: 88.5%
[7]
  viability, T/C: 82.9%
[8]
  viability, T/C: 96.4%
Second compound 1 µM, first compound 0.316 µM
  viability, T/C: 85.1%
Second compound 1 µM, first compound 1 µM
  viability, T/C: 78.3%
Second compound 1 µM, first compound 3.16 µM
  viability, T/C: 91.9%
Second compound 1 µM, first compound 10 µM
  viability, T/C: 66.8%
[9]
  viability, T/C: 72%
[10]
  viability, T/C: 76%
Second compound 3.16 µM, first compound 0.316 µM
  viability, T/C: 72.2%
Second compound 3.16 µM, first compound 1 µM
  viability, T/C: 69.5%
Second compound 3.16 µM, first compound 3.16 µM
  viability, T/C: 62.3%
Second compound 3.16 µM, first compound 10 µM
  viability, T/C: 58%
[11]
  viability, T/C: 43.2%
[12]
  viability, T/C: 41.2%
Second compound 10 µM, first compound 0.316 µM
  viability, T/C: 40.5%
Second compound 10 µM, first compound 1 µM
  viability, T/C: 44.5%
Second compound 10 µM, first compound 3.16 µM
  viability, T/C: 33.7%
Second compound 10 µM, first compound 10 µM
  viability, T/C: 30.4%

## CC(=O)c1c(C)c2cnc(Nc3ccc(N4CCNCC4)cn3)nc2n(C2CCCC2)c1=O + CC(Nc1ncnc2nc[nH]c12)c1cc2cccc(Cl)c2c(=O)n1-c1ccccc1
Second compound 0.0316 µM
  IC50: > 100 nM
Second compound 0.1 µM
  IC50: > 100 nM
Second compound 0.316 µM
  IC50: > 100 nM
Second compound 1 µM
  IC50: > 100 nM
Second compound 3.16 µM
  IC50: > 100 nM
Second compound 10 µM
  IC50: > 100 nM
Second compound 0.0316 µM, first compound 0.000316 µM
  viability, T/C: 96%
Second compound 0.0316 µM, first compound 0.001 µM
  viability, T/C: 99%
Second compound 0.0316 µM, first compound 0.00316 µM
  viability, T/C: 100%
Second compound 0.0316 µM, first compound 0.01 µM
  viability, T/C: 91.2%
[1]
  viability, T/C: 86.5%
[2]
  viability, T/C: 71.3%
Second compound 0.1 µM, first compound 0.000316 µM
  viability, T/C: 91.2%
Second compound 0.1 µM, first compound 0.001 µM
  viability, T/C: 90.2%
Second compound 0.1 µM, first compound 0.00316 µM
  viability, T/C: 96.1%
Second compound 0.1 µM, first compound 0.01 µM
  viability, T/C: 73.3%
[3]
  viability, T/C: 100%
[4]
  viability, T/C: 83.6%
Second compound 0.316 µM, first compound 0.000316 µM
  viability, T/C: 92.8%
Second compound 0.316 µM, first compound 0.001 µM
  viability, T/C: 93.7%
Second compound 0.316 µM, first compound 0.00316 µM
  viability, T/C: 82%
Second compound 0.316 µM, first compound 0.01 µM
  viability, T/C: 90.6%
[5]
  viability, T/C: 86.9%
[6]
  viability, T/C: 84%
Second compound 1 µM, first compound 0.000316 µM
  viability, T/C: 80.1%
Second compound 1 µM, first compound 0.001 µM
  viability, T/C: 73.8%
Second compound 1 µM, first compound 0.00316 µM
  viability, T/C: 79.6%
Second compound 1 µM, first compound 0.01 µM
  viability, T/C: 89%
[7]
  viability, T/C: 76.6%
[8]
  viability, T/C: 80.6%
Second compound 3.16 µM, first compound 0.000316 µM
  viability, T/C: 81.2%
Second compound 3.16 µM, first compound 0.001 µM
  viability, T/C: 88.6%
Second compound 3.16 µM, first compound 0.00316 µM
  viability, T/C: 100%
Second compound 3.16 µM, first compound 0.01 µM
  viability, T/C: 85.1%
[9]
  viability, T/C: 85.8%
[10]
  viability, T/C: 69.8%
Second compound 10 µM, first compound 0.000316 µM
  viability, T/C: 88.4%
Second compound 10 µM, first compound 0.001 µM
  viability, T/C: 76.3%
Second compound 10 µM, first compound 0.00316 µM
  viability, T/C: 78%
Second compound 10 µM, first compound 0.01 µM
  viability, T/C: 70.8%
[11]
  viability, T/C: 80.6%
[12]
  viability, T/C: 65.2%
